A short description of series [1]: Photocatalytic degradation of Mordant Orange on coated tiles under visible light. Particulars: MO on anatase coating, N=4. How it is done:
(§1) Photocatalytic coating formulation was prepared by adding 10 mg of anatase (A7) to 10 mL of dilute NaOH (pH=9.5) in a 20 mL scintillation vial wrapped with aluminum foil. The suspension was sonicated (Misonix Sonicator 3000, Farmingdale, NY) at the highest power level providing 180-200 W for 30 minutes total (10 min on/2 min off×3). Similarly, rutile (R22) and silica (S15) coating formulations were prepared without exposing to visible light. In case of anatase+PHF, the anatase suspension was sonicated for 30 minutes followed by addition of 1 mL of a PHF solution (1000 or 100 mg/L). The nanocomposites suspension was mixed with a magnetic stirrer for 10 minutes in dark.
(§2) Ceramic tiles were utilized to evaluate the photocatalytic degradation of organic dye and inactivation of microbes. […]
(§3) The photocatalytic experiments were carried out under fluorescent lamps (General Electric model T8 Ultramax F28T8-SPX41) at visible light irradiance of 1.8-2.0 W/m^2. […] The visible light and UVA irradiances were measured with a PMA 2140 Global detector or a PMA 2110 UVA detector attached to a PMA2110 meter (Solar Light Co., Glenside, Pa.).
(§4) The temporal changes in dye concentration were determined by measuring the absorbance after predetermined times of exposure to visible light. The inactivation of S. aureus was evaluated by determining the viable counts after exposure to visible light. […]

A short description of series [2]: Photocatalytic degradation of Procion Red on coated tiles under visible light. Particulars: PR on anatase coating, N=4. How it is done: as §1, §2, §3, §4

Turning to Mordant Orange, the “overall pseudo first order degradation rate” value in series [1] is 0.01 h⁻¹.
In the case of Procion Red, the “overall pseudo first order degradation rate” value in series [2] came to 0.023 h⁻¹.

The values above are taken from patent US11439980B2, “Contaminant-activated photocatalysis” (UNIVERSITY OF FLORIDA RESEARCH FOUNDATION, INC., priority 2016, dated 2022).
